# Experimental data taken from PubChem BioAssay (NCI).
#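 Following 48 hours of exposure in 96-well plates, responses at five concentrations were used to interpolate endpoints linearly. Here, GI50 denotes the concentration required for 50% inhibition of growth. At the TGI there is no net growth.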
# What was measured:
# Assay in all cases: NCI anticancer screen, dose series, 48 h
# K-562 leukemia = system: K-562 leukemia
# A498 renal = system: A498 renal
# SF-268 CNS = system: SF-268 CNS
# 786-0 renal = system: 786-0 renal
# ACHN renal = system: ACHN renal
# SK-OV-3 ovarian = system: SK-OV-3 ovarian
# RPMI-8226 leukemia = system: RPMI-8226 leukemia
# OVCAR-3 ovarian = system: OVCAR-3 ovarian
# HOP-92 NSCLC = system: HOP-92 NSCLC
# BT-549 breast = system: BT-549 breast
SMILES,TGI (K-562 leukemia) [µM],TGI (A498 renal) [µM],TGI (SF-268 CNS) [µM],TGI (786-0 renal) [µM],TGI (ACHN renal) [µM],TGI (SK-OV-3 ovarian) [µM],TGI (RPMI-8226 leukemia) [µM],TGI (OVCAR-3 ovarian) [µM],TGI (HOP-92 NSCLC) [µM],GI50 (K-562 leukemia) [µM],GI50 (A498 renal) [µM],GI50 (HOP-92 NSCLC) [µM],GI50 (SF-268 CNS) [µM],GI50 (BT-549 breast) [µM],TGI (BT-549 breast) [µM],GI50 (786-0 renal) [µM],GI50 (ACHN renal) [µM],GI50 (SK-OV-3 ovarian) [µM],GI50 (OVCAR-3 ovarian) [µM],GI50 (RPMI-8226 leukemia) [µM]
CCOC(=O)C(NC(=O)c1nc[nH]c1[N+](=O)[O-])C(C)C (stereo not drawn),> 100,> 100,> 100,> 100,> 100,> 100,> 100,> 100,,,,,,,,,,,,
CC(=O)N1CCC2(c3ccccc3N(C(C)=O)C2c2ccc(O)cc2)C1C(=O)O (stereo not drawn),> 100,> 100,> 100,> 100,> 100,> 100,> 100,> 100,> 100,,,,,,,,,,,
O=[N+]([O-])c1ccc(-c2ccc(-c3csc(Nc4ccccc4)n3)o2)cc1,32.1,34.5,33.2,30.9,31.1,> 100,> 67.4,33.7,37,,,,,,,,,,,
CCC(=O)Nc1nc2c(ncn2C2OC(COC(=O)CC)C(OC(=O)CC)C2OC(=O)CC)c(=O)[nH]1 (stereo not drawn),> 100,> 100,> 100,> 100,> 100,> 100,> 100,> 100,,,,,,,,,,,,
CSC(=S)N/N=C/c1nccc2ccccc12,14.3,13.6,9.65,12.6,12.2,29.8,11.6,,6.36,,,,,,,,,,,
C/C(=N\NC(=O)CC#N)c1c(O)cc(C)oc1=O,> 100,> 100,> 100,> 100,> 100,> 100,,,> 100,,,,,,,,,,,
Cc1c(C(=O)O)oc2ccc([N+](=O)[O-])cc12,> 100,> 100,> 100,> 100,> 100,> 100,,> 100,> 100,,,,,,,,,,,
N/N=C1\C(=O)N(CCc2ccccc2)C(=O)C1C(=O)NCCc1ccccc1 (stereo not drawn),> 100,,> 100,> 100,> 100,> 100,> 100,> 100,> 100,,,,,,,,,,,
O=C(/C=C/c1ccccc1)c1ccc(NCc2nc3ccccc3[nH]2)cc1,> 26.1,18.3,20.9,14.4,20.4,18.1,,9.57,22.5,,,,,,,,,,,
Cc1ccccc1NC(=O)C1C(=O)N(c2ccccc2C)C(=O)/C1=N\NC(N)=S (stereo not drawn),> 100,,> 100,> 100,> 100,> 100,> 100,> 100,> 100,,,,,,,,,,,
CC(C)(C)OC(=O)NCCCCCCCn1c2c(c3ccccc3c1=O)C(=O)c1ccccc1-2,> 100,42.2,93.6,55.4,90.4,> 100,,> 100,37.1,42.7,4.74,15,25.4,22.4,46.6,23.2,27.1,31.6,34.3,
C=CC(OCC)(OCC)OCC,> 100,> 100,> 100,58.7,> 100,> 100,> 100,> 100,> 100,,,,,,,,,,,
COc1ccc(OC)c(Cn2cc3c(c2-c2ccccc2)CCc2cnoc2-3)c1,> 100,9.28,> 100,> 100,> 100,> 100,> 100,7.95,> 100,2.67,2.12,5.26,6.24,,,6.09,6.89,7.48,2.7,6.54
CCOC(=O)c1cc2c3c(c(O)c(OC)c2s1)N(C(=O)c1cc2c4c(c(O)c(OC)c2s1)N(C(C)=O)CC4)CC3,> 100,> 100,> 100,> 100,> 100,> 100,> 100,> 100,> 100,,,,,,,,,,,
Cc1c2ccccc2cc2ccc3oc([N+](=O)[O-])cc3c12,> 100,> 100,> 100,> 100,> 100,> 100,> 100,> 100,> 100,,,,,,,,,,,
COC(=O)C1(C(=O)OC)CC(=O)c2cc3c(cc2-c2c(cc(OC)c(OC)c2OC)C1)OCO3,> 211,,> 211,> 211,> 211,> 211,,> 211,167,,,,,,,,,,,
NC(=S)NN/C=C(\C=Nc1ccccc1)[N+](=O)[O-],> 100,,> 100,> 100,> 100,> 100,> 100,> 100,> 100,,,,,,,,,,,
CSC1=Nc2ccccc2N=C(c2ccc(Cl)cc2)C1,> 100,,> 100,> 100,> 100,> 100,> 100,> 100,,,,,,,,,,,,
Cn1c2c(c3ccccc31)CCN(CCN1CCN(c3cccc(Cl)c3)CC1)C2=O,> 100,> 100,> 100,> 100,> 100,> 100,> 100,,77.1,,,,,,,,,,,
CCNC(=O)COc1ccc(Cl)cc1Cl,> 100,> 100,> 100,> 100,> 100,> 100,> 100,> 100,> 100,,,,,,,,,,,
COC(=O)C1(O)CC(=O)CCC1c1ccc(OC)cc1 (stereo not drawn),> 100,> 100,> 100,> 100,> 100,> 100,> 100,> 100,> 100,,,,,,,,,,,
CC(C)(C)C(=O)[CH-]C(=O)C(C)(C)C.CC(C)(C)C(=O)[CH-]C(=O)C(C)(C)C.CN(C)c1ccc([O-])cc1.CN(C)c1ccc([O-])cc1.[Ti+4],> 100,,> 100,> 100,> 100,> 100,> 100,> 100,> 100,> 100,,72,> 100,,,68.2,> 100,> 100,96.2,52.7
